Source: ChEMBL document CHEMBL3864127, “Janadolide, a Cyclic Polyketide-Peptide Hybrid Possessing a tert-Butyl Group from an Okeania sp. Marine Cyanobacterium” (J Nat Prod, 2016)

How the values were obtained:
[1] = Cytotoxicity against human HL60 cells assessed as cell growth inhibition at 10 uM after 72 hrs by MTT assay; assay type: toxicity, cell-based; details: hl-60, 72 h
[2] = tested on: Trypanosoma brucei brucei; experiment: Antitrypanosomal activity against bloodstream form of Trypanosoma brucei brucei GUTat 3.1 after 72 hrs by Alamar blue assay; assay type: functional; details: GUTat 3.1, 72 h
[3] = Cytotoxicity against human MRC5 cells assessed as cell growth inhibition at 10 uM after 7 days by MTT assay; assay type: toxicity, cell-based; details: mrc5, 168 h
[4] = Cytotoxicity against human HeLa cells assessed as cell growth inhibition at 10 uM after 72 hrs by MTT assay; assay type: toxicity, cell-based

| IC50 [2] [nM] | SMILES | Activity [1] | Activity [3] | Activity [4] |
| --- | --- | --- | --- | --- |
| 47 | C/C1=C\[C@@H](C(C)(C)C)OC(=O)[C@H](CC(C)C)N(C)C(=O)[C@H](C)N(C)C(=O)CNC(=O)[C@H](C(C)C)NC(=O)[C@@H]2CCCN2C(=O)[C@H](C)CC1 | Non-Toxic | Non-Toxic | Non-Toxic |
| 1200 | Cc1ccc(C(=O)Nc2ccc(S(=O)(=O)O)c3cc(S(=O)(=O)O)cc(S(=O)(=O)O)c23)cc1NC(=O)c1cccc(NC(=O)Nc2cccc(C(=O)Nc3cc(C(=O)Nc4ccc(S(=O)(=O)O)c5cc(S(=O)(=O)O)cc(S(=O)(=O)O)c45)ccc3C)c2)c1 [SURAMIN] |  |  |  |
